Measured values reported in patent publication US11642419B2, “Compositions and methods for treating cardiovascular related disorders” (The Regents of the University of Michigan, priority 2015, dated 2023).

What was measured:
[1] = Plasma lipids in apoE-deficient mice; format: in vivo; details: apoE-deficient mice on HFD, i.p., three times per week, 6 weeks, FIG. 22
Protocol: Six-week-old male apoE^−/− mice were place on HFD for 6 weeks to induce atherosclerotic lesion formation. Mice were randomized into 5 groups and received intraperitoneal injection with 1) PBS, 2) DMSO, 3) CD3254 dissolved in dimethyl sulfoxide (DMSO) (free CD3254, at 0.1 mg/kg), 4) sHDL nanoparticles, or 5) CD3254-encapsulated sHDL particles with a dose of 0.1 mg/kg of CD3254. The mice were treated for 6 weeks (three times per week, on Monday, Wednesday and Friday). Direct LDL-cholesterol (LDL-c), direct HDL-cholesterol (HDL-c), and enzymatic-colorimetric assays used to determine plasma total cholesterol (TC) and triglycerides (TG) were carried out at the Chemistry Laboratory of the Michigan Diabetes Research and Training Center.

[2] = system: SREBP1c; assay: qRT-PCR of SREBP1c expression in the liver of C57BL/6J mice; format: in vivo; details: liver tissues from FIG. 8, FIG. 9
Protocol: To visualize whether sHDL can deliver its cargo to the plaque efficiently, a lipophilic near-infrared fluorescent dye, DiD, was incorporated into sHDL. […] The DiD-labeled sHDL nanoparticles were administrated by tail vein injection at a dose of 100 μg DiD and 10 mg/Kg sHDL to a murine atherosclerosis model. 24 hours post injection, animals were sacrificed and aortas were removed. DiD fluorescence associated with aortas were analyzed using the Xenogen IVIS optical imaging system. […] The side effects of different LXR agonist formulations were assessed.
FIGS. 8A and 8B show the effects of TO901317-encapsulated sHDL particles on plasma lipids in C57BL/6J Mice. C57BL/6J wild type mice were divided into 8 groups and treated with DMSO, TO901317 at 0.5 mg/kg, TO901317 at 1.5 mg/kg, TO901317 at 10 mg/kg, or sHDL blank particles, TO901317-encapsulated sHDL particles with TO901317 at 0.5 mg/kg, TO901317-encapsulated sHDL particles with TO901317 at 1.5 mg/kg, TO901317-encapsulated sHDL particles with TO901317 at 10 mg/kg via intraperitoneal injection. Twenty-four hours later, collected plasma and liver tissues were stored at −80° C. until processed. […]

[3] = system: ABCA1; assay: qRT-PCR of ABCA1 in blood monocytes of treated apoE−/− mice; format: in vivo; details: 1.5 mg/kg TO901317 i.p., three times per week, 6 weeks, FIG. 11
Protocol: (§1) The effect of TO901317-encapsulated sHDL on target gene expression in monocytes from apoE^−/− mice was also investigated. Six-week-old male apoE^−/− mice were place on atherogenic high fat diet (HFD) for 12 weeks to induce atherosclerotic lesion formation. Mice were randomly divided into five groups, and each group was treated with intraperitoneal injections of the following regimens with an equivalent dose of 1.5 mg/kg entrapped TO901317: 1) PBS, 2) DMSO, 3) TO901317 dissolved in dimethyl sulfoxide (DMSO) (free TO901317), 4) sHDL nanoparticles, or 5) TO901317-encapsulated sHDL particles. The mice were treated for 6 weeks (three times per week, on Monday, Wednesday and Friday). The monocytes from the blood were isolated and the expression of ABCA1 and ABCG1 was detected by qRT-PCR as described in FIG. 5.

[4] = Liver tissue triglyceride in apoE−/− mice; format: in vivo; details: 1.5 mg/kg TO901317 i.p., three times per week, 6 weeks, FIG. 12
Protocol: (§2) Six-week-old male apoE^−/− mice were place on atherogenic high fat diet (HFD) for 12 weeks to induce atherosclerotic lesion formation. Mice were randomly divided into five groups, and each group was treated with intraperitoneal injections of the following regimens with an equivalent dose of 1.5 mg/kg entrapped TO901317: 1) PBS, 2) DMSO, 3) TO901317 dissolved in dimethyl sulfoxide (DMSO) (free TO901317), 4) sHDL nanoparticles, or 5) TO901317-encapsulated sHDL particles. The mice were treated for 6 weeks (three times per week, on Monday, Wednesday and Friday). Liver tissue triglyceride concentrations were measured using a Triglyceride Quantification Kit (Cayman). Fifty mg of liver was homogenized in a 5% NP-40 buffer, and assay was performed according to manufacturer's directions.

[5] = system: SREBP1c; assay: qRT-PCR of SREBP1c in the liver of apoE−/− mice; format: in vivo; details: liver tissues from FIG. 12, FIG. 13
Protocol: as §2
LXR ligands have been implicated in triggering induction of the lipogenic pathway via activation of SREBP-1c in the liver, which leads to the adverse effects of steatosis and hypertriglyceridemia. The liver tissues from FIG. 12 were used to detect the expression of SREBP1c and Fatty acid synthase (FAS) using qRT-PCR as described in FIG. 5.

[6] = system: ABCA1; assay: qRT-PCR of ABCA1 expression in J774.1 macrophages; format: cell-based, murine; details: FIG. 3C
Protocol: (§3) Incorporation of LXR agonist into sHDL is the first and most important step for all subsequent studies. Phospholipids, apoA-I mimetic peptide (22A) and LXR agonist TO901317 (TO) were hydrated in an aqueous solution and the sHDL nanoparticles were formed after 3 cycles of thermal cycling between 25 and 50° C. (see, e.g., Di Bartolo, B. A.; et al., Atherosclerosis 2011, 217 (2), 395-400; Dasseux, J.-L. Peptide/lipid complex formation by co-lyophilization. 2001). The homogeneity of the size distribution was confirmed by gel permeation chromatography (GPC) and scanning electron microscopy (SEM) (FIG. 3A-B). The average particle size of sHDL was 6-14 nm (e.g., 8-10 nm) as determined by dynamic light scattering using a Malvern Nanosizer. […]
(§4) In macrophages, LXRs control transcription of several genes involved in the cholesterol efflux pathway, including ABCA1 and ABCG1. To examine the ability of TO901317-encapsulated sHDL particles to activate LXR-target genes, J774.1 murine macrophage cells were incubated with sHDL blank particles or TO901317-encapsulated sHDL particles (TO901317 at 10^−6M) for 4 hours and the expression of both genes were measured using quantitative real-time PCR (qRT-PCR). […] The resulting cDNA was amplified with appropriate primers using power SYBR Green PCR Master Mix and analyzed on a CFX real-time PCR system (Bio-Rad). […]

[7] = system: ABCG1; assay: qRT-PCR of ABCG1 in blood monocytes of treated apoE−/− mice; format: in vivo; details: 1.5 mg/kg TO901317 i.p., three times per week, 6 weeks, FIG. 11
Protocol: as §1

[8] = Plasma lipids in C57BL/6J mice; format: in vivo; details: TO901317 0.5, 1.5, 10 mg/kg intraperitoneal, 24 hours later, FIG. 8
Protocol: FIGS. 8A and 8B show the effects of TO901317-encapsulated sHDL particles on plasma lipids in C57BL/6J Mice. C57BL/6J wild type mice were divided into 8 groups and treated with DMSO, TO901317 at 0.5 mg/kg, TO901317 at 1.5 mg/kg, TO901317 at 10 mg/kg, or sHDL blank particles, TO901317-encapsulated sHDL particles with TO901317 at 0.5 mg/kg, TO901317-encapsulated sHDL particles with TO901317 at 1.5 mg/kg, TO901317-encapsulated sHDL particles with TO901317 at 10 mg/kg via intraperitoneal injection. Twenty-four hours later, collected plasma and liver tissues were stored at −80° C. until processed. Direct LDL-cholesterol (LDL-c), direct HDL-cholesterol (HDL-c), and enzymatic-colorimetric assays used to determine plasma total cholesterol (TC) and triglycerides (TG) were carried out at the Chemistry Laboratory of the Michigan Diabetes Research and Training Center.

[9] = system: ABCG1; assay: qRT-PCR of ABCG1 expression in J774.1 macrophages; format: cell-based, murine; details: FIG. 3D
Protocol: as §3, §4

- plasma TG levels [1]: significantly elevated
- expression of SREBP1c in the liver (qRT-PCR) [2]: activated SREBP1c
- expression of SREBP1c in the liver (qRT-PCR) [5]: activated SREBP1c
- plasma TG levels [8]: significantly elevated
Compound: O=S(=O)(c1ccccc1)N(CC(F)(F)F)c1ccc(C(O)(C(F)(F)F)C(F)(F)F)cc1 [TO901317]
- ABCA1 expression in monocytes (qRT-PCR) [3]: activated the expression
- triglyceride accumulation in the liver [4]: significantly induced the accumulation of triglyceride
- ABCA1 expression (qRT-PCR) [6]: upregulated
- ABCG1 expression in monocytes (qRT-PCR) [7]: activated the expression
- ABCG1 expression (qRT-PCR) [9]: upregulated
